Test results: paper PMC11783601, “Analogue-Sensitive Inhibition of Histone Demethylases Uncovers Member-Specific Function in Ribosomal Protein Synthesis” (Journal of the American Chemical Society, 2025)

Tests used:
[1] = tested on: asKDM4 mutants (KDM4A-F185A, KDM4C-F187A, KDM4D-F189A and KDM4E-F186A); test: Demethylation of extracted full-length histones, Western blot with H3K9me3 antibody; assay type: biochemical, human; conditions: histones extracted from HEK293T cells, 20 µM (Fig S19 legend)
Procedure: We next tested the inhibitory potential of 6 against these proteins using H3K9me3 peptide substrate and analyzed it by MALDI-MS. […] We subsequently examined the ability of asKDM4 variants to demethylate full-length histones extracted from mammalian cells. HEK293T cells were cultured in the presence of 10 μM n-octyl IOX1, a broad-spectrum inhibitor of demethylases,[41],[42] to generate a hypermethylated proteome (Figure S19). The extracted histone was incubated with the as variants individually, each with or without 6, and the extent of demethylation was analyzed by Western blot using the H3K9me3-specific antibody. […]
directly to ice and 2M Ammonium Acetate was added and left on ice for 5 minutes. […]
The supernatant was transferred to a fresh 1.5 mL centrifuge tube, 132 µL of TCA was added dropwise to precipitate the histones and incubated on ice for 30 mins to 1.5 hr. […] 1 µL of histone extracts was loaded on a 15% gel with the BSA standards to quantify the amount of H3 for the assay. […]
(NH4)2Fe(SO4)2, 2 mM L-ascorbic acid and 50 mM Tris pH 8.0 were incubated with or without 150 µM of L-Leu NOG for 5 minutes on ice, after which substrate (300 µM 2OG and 2 µg of Histone extract) was added to the tube. The assay was incubated at 37 °C for 1.5 hours, the samples were analyzed via western blotting using H3K9me3 specific antibody. […]

[2] = biological target: T1, PHD3 (EGLN3) (Homo sapiens, UniProt Q9H6Z9); test: MALDI-based assay EGLN3 prolyl hydroxylation of peptide; assay type: biochemical; conditions: MALDI-TOF, peptide substrate
T1 construct: Full length EGLN3 construct plasmid with; TEV-His (N); host or cells: E. coli BL21 (DE3)
Procedure: demethylation events on the peptide. The percent peak area was calculated, and the K27me2, me1,
and me0 peaks were summed to get the relative percent demethylated peptide.
MALDI-based assay for FTO and ALKBH5: To determine the enzymatic activity of FTO and
ALKBH5 recombinant proteins in the presence of L-Leu NOG 6, a previously published methods
were utilized.15, 18 Briefly,10 µM of each protein was incubated in the presence of 10 µM RNA
7.5, 150 mM KCl, 50 µM L-Leu NOG or equivalent volume of water in 10 µL aliquots. The
samples were placed on ice for 10 minutes followed by addition of 200 µM 2OG or equivalent
volume of water. After incubation at 37 °C for 30 minutes, samples were desalted with 3 µL of BT
spotted on a MALDI plate with 1uL sample and 1uL of 3-HPA matrix and monitored with Bruker
FlexControl in the reflectron negative mode and analyzed on Bruker FlexAnalysis software.
Relative inhibition was monitored via assessing percent product decrease with L-Leu NOG
MALDI-based assay for C14orf169 (NO66) and MINA: To monitor the enzymatic activity of […]
1 µL S-DHB matrix were spotted on a MALDI plate and monitored with Bruker FlexControl in
the reflectron positive mode and analyzed on Bruker FlexAnalysis software. […]
was monitored via assessing percent product decrease with L-Leu NOG samples compared to no […]
monitored following a reported method.19 To monitor the enzymatic activity of EGLN1 and 3 […]

T1 sequence (Q9H6Z9 whole entry): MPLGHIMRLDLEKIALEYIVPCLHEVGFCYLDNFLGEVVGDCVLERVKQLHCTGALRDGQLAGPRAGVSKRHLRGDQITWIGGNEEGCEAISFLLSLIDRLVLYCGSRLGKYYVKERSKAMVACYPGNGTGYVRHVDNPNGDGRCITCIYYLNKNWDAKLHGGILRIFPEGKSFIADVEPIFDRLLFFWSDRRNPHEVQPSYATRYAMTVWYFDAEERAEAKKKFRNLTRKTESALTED

## CC(C)CC(NC(=O)C(=O)O)C(=O)O (stereo not drawn) [compound 6, N-oxalyl leucine]
[1]
  inhibition of demethylation of full-length histone H3 by asKDM4 mutants: noticeably inhibited
[1]; listed as NOL 6
  inhibition of demethylation of full-length histone H3 by asKDM4 mutants: inhibits the mutants
[2]
  inhibition of PHD3: No inhibition
